Test results taken from patent US12534469B2 (CHILDREN'S HOSPITAL MEDICAL CENTER, priority 2020, dated 2026).

Assays:
MOLM14 (D835Y) cells = assay: Combination drug screening, 10 x 10 matrix, cell viability (Cell Titer Glo); assay type: cell-based; conditions: for Sum Excess HSA / Interaction with Compound 96: combination with Compound 96, 10 x 10 dataset; for Sum Excess HSA: 48 hours; for Interaction with Venetoclax: combination with Venetoclax, 10 x 10 dataset; for concentration required to reach a similar level of potentiation as Compound 106: 7.8 nM Venetoclax, 10×10 combination, compared with Compound 106
Description: Briefly, 10 nL of compounds were acoustically dispensed into 1536-well white polystyrene tissue culture-treated plates with an Echo 550 acoustic liquid handler (Labcyte). MOLM14 (D835Y) cells were then added to compound-containing plates at a density of 500-cells/well in 5 μL of medium. A 10-point custom concentration range was used for all listed drugs. Plates were incubated for 48 hours at standard incubator conditions covered by a stainless steel gasketed lid to prevent evaporation. 48 h post compound addition, 3 μL of Cell Titer Glo (Promega) were added to each well and plates were incubated at room temperature for 15 minutes with the stainless-steel lid in place. Luminescence readings were taken using a Viewlux imager (PerkinElmer) with a 2 second exposure time per plate.
However, different methodologies may yield different numerical scores, and different definitions of what constitutes a deviation from mere additivity vs true drug synergy.
However, the utility in certain drug combinations vs others should not be distinguished based on cutoffs between HSA scores, because the score itself is only a relative indicator that is completely dependent on experimental design and is not an absolute number. Furthermore, the concept of what constitutes clinically meaningful drug synergy is something that is still being debated, not only between pharmacologists and physicians, but amongst pharmacologists themselves.

FLT3 = biological target: T1, FLT3 (Homo sapiens, UniProt P36888); assay: RBC HotSpot Kinase Assay, FLT3; assay type: biochemical
T1 construct: purchased Reaction Biology (RBC HotSpot Kinase Assay)
T1 sequence (P36888 564-958 limits assumed): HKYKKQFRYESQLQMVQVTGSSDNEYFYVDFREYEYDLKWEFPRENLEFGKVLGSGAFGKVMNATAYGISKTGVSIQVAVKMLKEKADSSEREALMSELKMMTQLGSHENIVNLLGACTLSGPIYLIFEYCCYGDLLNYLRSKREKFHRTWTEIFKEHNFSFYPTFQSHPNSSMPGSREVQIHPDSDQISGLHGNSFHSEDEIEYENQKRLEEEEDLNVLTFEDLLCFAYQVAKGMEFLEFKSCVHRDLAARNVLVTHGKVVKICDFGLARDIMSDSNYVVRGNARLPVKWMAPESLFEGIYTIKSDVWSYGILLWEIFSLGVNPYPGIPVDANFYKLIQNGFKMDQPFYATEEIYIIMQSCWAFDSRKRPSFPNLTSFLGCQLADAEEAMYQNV
Method in brief: (§1)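 Radiometric filter-binding (HotSpot) activity assay on isolated recombinant kinase, possibly truncated or catalytic domain only, in 20 mM Hepes pH 7.5, 10 mM MgCl2, 1 mM EGTA, 2 mM DTT, 1% DMSO. Compound preincubated 20 min with kinase and substrate, then ^33P-ATP added. Reaction 2 h at room temperature, read by P81 filter binding.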

IRAK1 = biological target: T2, IRAK1 (Homo sapiens, UniProt P51617); assay: RBC HotSpot Kinase Assay, IRAK1; assay type: biochemical
T2 construct: purchased Reaction Biology (RBC HotSpot Kinase Assay)
Method in brief: as §1

IRAK4 = biological target: T3, IRAK4 (Homo sapiens, UniProt Q9NWZ3); assay: RBC HotSpot Kinase Assay, IRAK4; assay type: biochemical; parameters: purchased Reaction Biology (RBC HotSpot Kinase Assay)
T3 sequence (Q9NWZ3 1-460): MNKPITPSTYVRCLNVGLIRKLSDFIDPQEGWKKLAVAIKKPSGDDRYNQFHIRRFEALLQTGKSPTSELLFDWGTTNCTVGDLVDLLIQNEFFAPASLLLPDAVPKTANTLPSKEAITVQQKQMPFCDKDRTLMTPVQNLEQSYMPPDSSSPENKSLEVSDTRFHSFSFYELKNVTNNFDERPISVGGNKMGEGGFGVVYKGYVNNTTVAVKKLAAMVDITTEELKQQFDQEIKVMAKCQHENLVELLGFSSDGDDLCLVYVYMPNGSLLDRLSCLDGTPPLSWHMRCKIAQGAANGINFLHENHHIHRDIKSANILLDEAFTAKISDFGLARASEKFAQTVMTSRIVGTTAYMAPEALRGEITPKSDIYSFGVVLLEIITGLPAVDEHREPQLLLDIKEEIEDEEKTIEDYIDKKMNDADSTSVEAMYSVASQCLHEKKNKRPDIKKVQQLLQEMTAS
Method in brief: as §1

T2 sequence (P51617 whole entry): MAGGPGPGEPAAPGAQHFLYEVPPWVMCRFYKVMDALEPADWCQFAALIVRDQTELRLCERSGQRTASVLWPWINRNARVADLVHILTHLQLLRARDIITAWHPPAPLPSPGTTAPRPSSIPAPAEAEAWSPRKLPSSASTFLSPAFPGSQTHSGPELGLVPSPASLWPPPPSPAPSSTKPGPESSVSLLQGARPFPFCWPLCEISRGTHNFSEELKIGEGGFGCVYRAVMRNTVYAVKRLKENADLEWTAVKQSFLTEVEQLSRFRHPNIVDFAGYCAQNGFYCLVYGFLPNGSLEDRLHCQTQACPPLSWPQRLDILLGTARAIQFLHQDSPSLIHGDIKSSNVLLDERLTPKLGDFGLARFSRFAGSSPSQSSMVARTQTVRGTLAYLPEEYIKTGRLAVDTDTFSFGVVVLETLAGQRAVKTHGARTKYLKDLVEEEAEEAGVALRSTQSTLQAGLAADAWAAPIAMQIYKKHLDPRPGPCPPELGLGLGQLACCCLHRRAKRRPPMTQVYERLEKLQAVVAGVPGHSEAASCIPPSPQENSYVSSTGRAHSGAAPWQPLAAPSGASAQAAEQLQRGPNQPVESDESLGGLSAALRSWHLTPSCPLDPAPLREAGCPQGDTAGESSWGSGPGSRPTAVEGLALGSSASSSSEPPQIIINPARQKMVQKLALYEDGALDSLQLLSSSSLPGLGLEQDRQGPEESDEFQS

With `C[C@]12C=CC(=O)C=C1CC[C@@H]1[C@@H]2[C@@H](O)C[C@@]2(C)[C@H]1CC[C@]2(O)C(=O)CO` [Prednisolone, prednisolone, reference compound] the “Sum Excess HSA” value (MOLM14 (D835Y) cells) was −46.1.
For `CC(C)[C@@H](CS(=O)(=O)C(C)C)N1C(=O)[C@@](C)(CC(=O)O)C[C@H](c2cccc(Cl)c2)[C@H]1c1ccc(Cl)cc1` [AMG-232], the “Sum Excess HSA” value (MOLM14 (D835Y) cells) was −222.9.
For `O=C1CC[C@H](N2Cc3c(OCc4ccc(CN5CCOCC5)cc4)cccc3C2=O)C(=O)N1` [Iberdomide], the “Interaction with Compound 96” value (MOLM14 (D835Y) cells) was “Antagonistic”.
In the case of `Cc1c(-c2c(-c3ccc(F)o3)sc3ncnc(O[C@H](Cc4ccccc4OCc4ccnn4CC(F)(F)F)C(=O)O)c23)ccc(OCCN2CCN(C)CC2)c1Cl` [Compound S63845], the “Sum Excess HSA” value (MOLM14 (D835Y) cells) is reported as 297.3.
With “Gilteritinib hemifumerate [reference compound]” the “Interaction with Venetoclax” value (MOLM14 (D835Y) cells) was “synergize”.
In the case of `CC(C)(C)c1cc(NC(=O)Nc2ccc(-c3cn4c(n3)sc3cc(OCCN5CCOCC5)ccc34)cc2)no1` [Quizartinib, reference compound], the “concentration required to reach a similar level of potentiation as Compound 106” value (from here on “concentration required”) (MOLM14 (D835Y) cells) is reported as “substantially higher concentrations” and the “Interaction with Venetoclax” value (MOLM14 (D835Y) cells) is reported as “synergize”.
For `Cc1cc(-c2nc(C(=O)Nc3cc4oc(N5CCOCC5)nc4nc3N3CC[C@@H](O)C3)co2)ccn1` [CA-4948, reference compound], the “concentration required” value (MOLM14 (D835Y) cells) was “substantially higher concentrations” and the “Interaction with Venetoclax” value (MOLM14 (D835Y) cells) was “synergize”.
`C[C@H]1C[C@@H]2[C@H]([C@@H](O)C[C@@]3(C)[C@H]2CC[C@]3(O)C(=O)CO)[C@@]2(C)C=CC(=O)C=C12` [Methylprednisolone, methylprednisolone, reference compound] was tested, and the “Sum Excess HSA” value (MOLM14 (D835Y) cells) was 891.
With `CC1(C)CCC(CN2CCN(c3ccc(C(=O)NS(=O)(=O)c4ccc(NCC5CCOCC5)c([N+](=O)[O-])c4)c(Oc4cnc5[nH]ccc5c4)c3)CC2)=C(c2ccc(Cl)cc2)C1` [Venetoclax (ABT-199), venetoclax, reference compound] the “Sum Excess HSA” value (MOLM14 (D835Y) cells) was −549.6211.
For `Nc1ccn([C@@H]2O[C@H](CO)[C@@H](O)C2(F)F)c(=O)n1` [Gemcitabine, reference compound], the “Sum Excess HSA” value (MOLM14 (D835Y) cells) was 30.69.
In the case of `C[C@@H]1C[C@H]2[C@@H]3CCC4=CC(=O)C=C[C@]4(C)[C@@]3(F)[C@@H](O)C[C@]2(C)[C@@]1(O)C(=O)CO` [Dexamethasone, dexamethasone, reference compound], the “Sum Excess HSA” value (MOLM14 (D835Y) cells) is reported as −69.67.
In the case of `CC(=O)c1c(C)c2cnc(Nc3ccc(N4CCNCC4)cn3)nc2n(C2CCCC2)c1=O` [Palbociclib, reference compound], the “Sum Excess HSA” value (MOLM14 (D835Y) cells) is reported as 999.2.
“Gilteritinib hemifumarate [reference compound]” was tested, and the “concentration required” value (MOLM14 (D835Y) cells) was “substantially higher concentrations”.
With `CN1C(=O)N[C@H](Cc2c[nH]c3c(Cl)cccc23)C1=O` [Necrostatin 2] the “Sum Excess HSA” value (MOLM14 (D835Y) cells) was 288.7.
In the case of `CCN(c1cc(-c2ccc(CN3CCOCC3)cc2)cc(C(=O)NCc2c(C)cc(C)[nH]c2=O)c1C)C1CCOCC1` [Tazemetostat, tazemetostat, reference compound], the “Sum Excess HSA” value (MOLM14 (D835Y) cells) is reported as 74.36.
For `COc1cc(C(=O)O)ccc1NC(=O)[C@@H]1N[C@@H](CC(C)(C)C)[C@](C#N)(c2ccc(Cl)cc2F)[C@H]1c1cccc(Cl)c1F` [Idasanutlin], the “Sum Excess HSA” value (MOLM14 (D835Y) cells) was 192.3.
With `COc1cccc2nc(-c3cccs3)nc(NN3C(=O)C=C(C)C3=O)c12` [SPC-839] the “Sum Excess HSA” value (MOLM14 (D835Y) cells) was −326.8.
In the case of `CN1C(=O)[C@@H](NC(=O)c2n[nH]c(Cc3ccccc3)n2)COc2ccccc21` [GSK-2982772], the “Interaction with Compound 96” value (MOLM14 (D835Y) cells) is reported as “Synergestic” and the “Sum Excess HSA” value (MOLM14 (D835Y) cells) is reported as −577.
In the case of `CCOC(=O)c1ccc(C#Cc2ccc3c(c2)C(C)(C)CCS3)nc1` [Tazarotene], the “Sum Excess HSA” value (MOLM14 (D835Y) cells) is reported as −189.
For `Cc1cnc(-c2ccc(-c3ccc(NC(=O)Nc4c(F)cc(F)cc4F)cc3F)c3c2C(=O)NC3)[nH]1` [CG-806, reference compound], the “concentration required” value (MOLM14 (D835Y) cells) was “substantially higher concentrations” and the “Interaction with Venetoclax” value (MOLM14 (D835Y) cells) was “synergize”.
`Fc1cc(F)c2c(-c3ccc4ncc(-c5cccc(NC6CNCC6(F)F)n5)n4n3)cnn2c1` (stereo not drawn) [Compound 55, 6-(6-(4,6-difluoropyrazolo[1,5-a]pyridin-3-yl)imidazo[1,2-b]pyridazin-3-yl)-N-(4,4-difluoropyrrolidin-3-yl)pyridin-2-amine] showed an IC50 (FLT3) of 16 nM, an IC50 (IRAK1) of 6840 nM and an IC50 (IRAK4) of 113 nM.
For `Cn1cc(-c2ccc3ncc(-c4cccc(NC5CCC6(CNC6)C5)n4)n3n2)cn1` (stereo not drawn) [Compound 49, N-(6-(6-(1-methyl-1H-pyrazol-4-yl)imidazo[1,2-b]pyridazin-3-yl)pyridin-2-yl)-2-azaspiro[3.4]octan-6-amine], the IC50 (FLT3) was 2 nM, the IC50 (IRAK1) was 1200 nM and the IC50 (IRAK4) was 204 nM.
Work on `c1ccc(-n2cc(-c3ccc4ncc(-c5cccc(NC6CC7(CCNC7)C6)n5)n4n3)cn2)cc1` (stereo not drawn) [Compound 40, N-(6-(6-(1-phenyl-1H-pyrazol-4-yl)imidazo[1,2-b]pyridazin-3-yl)pyridin-2-yl)-6-azaspiro[3.4]octan-2-amine] yielded an IC50 (FLT3) of 9 nM, an IC50 (IRAK1) of over 10000 nM and an IC50 (IRAK4) of 1300 nM.
Work on `FC(F)n1cc(-c2ccc3ncc(-c4cccc(N[C@H]5CNC[C@@H]5F)n4)n3n2)cn1` [Compound 2, 6-(6-(1-(difluoromethyl)-1 H-pyrazol-4-yl)imidazo[1,2-b]pyridazin-3-yl)-N-((3S,4S)-4-fluoropyrrolidin-3-yl)pyridin-2-amine] yielded an IC50 (FLT3) of 2 nM, an IC50 (IRAK1) of 948 nM and an IC50 (IRAK4) of 115 nM.
In the case of `c1cc(NC2CC3(CNC3)C2)nc(-c2cnc3ccc(-c4cnn(C5CCOCC5)c4)nn23)c1` [Compound 34, N-(6-(6-(1-(tetrahydro-2H-pyran-4-yl)-1H-pyrazol-4-yl)imidazo[1,2-b]pyridazin-3-yl)pyridin-2-yl)-2-azaspiro[3.3]heptan-6-amine], the IC50 (FLT3) is reported as 16 nM, the IC50 (IRAK1) is reported as over 10000 nM and the IC50 (IRAK4) is reported as 5070 nM.
`FC(F)(F)[C@H]1CNC[C@@H]1Nc1cccc(-c2cnc3ccc(-c4cnn(C5CC5)c4)nn23)n1` [Compound 13, 6-(6-(1-cyclopropyl-1 H-pyrazol-4-yl)imidazo[1,2-b]pyridazin-3-yl)-N-((3R,4S)-4-(trifluoromethyl)pyrrolidin-3-yl)pyridin-2-amine] was tested, and the IC50 (FLT3) was 2 nM, the IC50 (IRAK1) was 1840 nM and the IC50 (IRAK4) was 106 nM.
`FC(F)n1cc(-c2ccc3ncc(-c4cccc(N[C@@H]5CCCNC5)n4)n3n2)cn1` [Compound 16] showed an IC50 (FLT3) of under 0.5 nM, an IC50 (IRAK1) of 3060 nM and an IC50 (IRAK4) of 157 nM.
Work on `CC(C)n1cc(-c2ccc3ncc(-c4cccc(NC5CC6(CCNC6)C5)n4)n3n2)cn1` (stereo not drawn) [Compound 39, N-(6-(6-(1-isopropyl-1H-pyrazol-4-yl)imidazo[1,2-b]pyridazin-3-yl)pyridin-2-yl)-6-azaspiro[3.4]octan-2-amine] yielded an IC50 (FLT3) of 8 nM, an IC50 (IRAK1) of 2330 nM and an IC50 (IRAK4) of 321 nM.
With `Cn1cc(-c2ccc3ncc(-c4cccc(N[C@H]5CCNC[C@@H]5F)n4)n3n2)cn1` [Compound 5, N-((3S,4S)-3-fluoropiperidin-4-yl)-6-(6-(1-methyl-1H-pyrazol-4-yl)imidazo[1,2-b]pyridazin-3-yl)pyridin-2-amine] the IC50 (FLT3) was 5 nM, the IC50 (IRAK1) was 266 nM and the IC50 (IRAK4) was 51 nM.
`FC(F)(F)[C@H]1CNC[C@@H]1Nc1cccc(-c2cnc3ccc(C4CC4)nn23)n1` [Compound 71, 6-(6-cyclopropylimidazo[1,2-b]pyridazin-3-yl)-N-((3R,4S)-4-(trifluoromethyl)pyrrolidin-3-yl)pyridin-2-amine] gave an IC50 (FLT3) of 0.8 nM, an IC50 (IRAK1) of 2650 nM and an IC50 (IRAK4) of 36 nM.
